These results are taken from ChEMBL document CHEMBL1201862, “PubChem BioAssay data set” (2004).

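Step 1: Grow cells in 96-well plates. Step 2: Expose to compound for 48 hours at 5 concentrations. Step 3: Interpolate endpoints linearly; if unreached, use highest concentration. GI50 marks 50% less growth.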 Active and inactive are the calls of the source. No stated cut-off is given here; in the data, active = GI50 up to about 1.1 µM and inactive = higher.

Some test systems named below: NCI-H522; HT-29; A498; NCI-H23; M19-MEL; HOP-62; SN12C; SK-MEL-28; SW-620; SNB-75; SF-539; NCI-H226; M14; 786-0; Malme-3M; COLO 205; HCT-116; BT-549; MDA-N; Hs-578T.
Holding throughout (assay): inhibition of tumour cell growth, NCI panel, 48 h

With `CCC(=O)CCC1=Nc2nnc(CCCCc3nnc4n3C(=O)C(CCC(=O)CC)=N4)n2C1=O`, the GI50 in the experiment on NCI-H522, in the experiment with HT-29, in the experiment with A498, in the experiment with NCI-H23, with M19-MEL and in the experiment with HOP-62 was > 100 µM (inactive) in each case. The GI50 in the experiment with SN12C, in the experiment on SK-MEL-28, in the experiment with SW-620, with SNB-75, in the experiment with SF-539 and with NCI-H226 was > 100 µM (inactive) each time. Further, the GI50 in the experiment on M14, in the experiment on 786-0, with Malme-3M and in the experiment with COLO 205 was > 100 µM (inactive) in each case.

For the compound `c1ccc(C2SCc3nc4ccccc4n32)cc1` (centres undefined), the GI50 with NCI-H522 is 18.9 µM (inactive); with HT-29, 46 µM (inactive); with A498 it was 40.6 µM (inactive); in the experiment with NCI-H23, 31.5 µM (inactive); with M19-MEL, 41.7 µM (inactive); with HOP-62, 43.8 µM (inactive). Moreover, the GI50 with SN12C was 46.1 µM (inactive); with SK-MEL-28, 40.3 µM (inactive); in the experiment with SW-620 it was 51.4 µM (inactive); in the experiment on HCT-116, 19.7 µM (inactive); in the experiment with SNB-75, 3.14 µM (inactive); in the experiment with SF-539 it was 22.5 µM (inactive). The GI50 in the experiment with NCI-H226 was 17.8 µM (inactive); with M14, 84.5 µM (inactive); with 786-0, > 100 µM (inactive); in the experiment on Malme-3M, 38.3 µM (inactive); in the experiment on COLO 205, 37.8 µM (inactive).

In the case of `COc1ccc(/C=C2\CCC(CN3CCOCC3)C2=O)cc1` (centres undefined), the GI50 is 0.776 µM (active) with NCI-H522; 2.44 µM (inactive) with HT-29; 2.25 µM (inactive) with BT-549; 9.44 µM (inactive) with A498; 5.94 µM (inactive) in the experiment with NCI-H23; 4.31 µM (inactive) in the experiment with M19-MEL. The GI50 is 10.5 µM (inactive) with HOP-62; 3.83 µM (inactive) with SN12C; 3.06 µM (inactive) in the experiment with SK-MEL-28; 1.79 µM (inactive) with SW-620; 1.8 µM (inactive) with HCT-116; 4.68 µM (inactive) with SNB-75. For the same compound, the GI50 is 2.79 µM (inactive) in the experiment on MDA-N; 5.92 µM (inactive) with SF-539; 18.9 µM (inactive) in the experiment on NCI-H226; 2.16 µM (inactive) with M14; 1.65 µM (inactive) in the experiment on 786-0; 3.01 µM (inactive) in the experiment with Malme-3M. Also, the GI50 in the experiment on COLO 205 was 2.17 µM (inactive); in the experiment with Hs-578T, 3.04 µM (inactive).

For `N#CCCN(CCC#N)c1ccc(/C=C(/NC(=O)c2cc([N+](=O)[O-])ccc2Cl)C(=O)NN)cc1`, the GI50 with NCI-H522, in the experiment on HT-29, in the experiment on A498, with NCI-H23, in the experiment with M19-MEL and in the experiment on HOP-62 was > 100 µM (inactive) in each case. The GI50 with SN12C, in the experiment with SK-MEL-28, in the experiment on SW-620, with HCT-116, in the experiment with SNB-75 and in the experiment with SF-539 was > 100 µM (inactive) each time. The GI50 in the experiment with NCI-H226, in the experiment on M14, with 786-0, with Malme-3M and in the experiment on COLO 205 was > 100 µM (inactive) throughout.

In the case of `Clc1ccc(-c2c(C3=NCCN3)nnn2-c2ccccc2)cc1`, the GI50 in the experiment with NCI-H522 was > 100 µM (inactive); in the experiment with HT-29, 68.7 µM (inactive); in the experiment with A498, > 100 µM (inactive); with NCI-H23, > 100 µM (inactive); with M19-MEL it was > 100 µM (inactive); in the experiment with HOP-62, > 100 µM (inactive). Also, the GI50 in the experiment with SN12C was > 100 µM (inactive); in the experiment with SK-MEL-28, > 100 µM (inactive); with SW-620, > 100 µM (inactive); in the experiment on HCT-116, 83.4 µM (inactive); in the experiment with SNB-75, > 100 µM (inactive); in the experiment with SF-539, > 100 µM (inactive). Besides, the GI50 with NCI-H226 was > 100 µM (inactive); in the experiment on M14, > 100 µM (inactive); with 786-0, > 100 µM (inactive); with Malme-3M, > 100 µM (inactive); in the experiment on COLO 205, 40.1 µM (inactive).

`C=CCC1(CN(C)C)CC/C(=C\c2ccc(OC)cc2)C1=O` (centres undefined): the GI50 is 25.8 µM (inactive) with NCI-H522; 36.6 µM (inactive) in the experiment on HT-29; 73.5 µM (inactive) in the experiment with A498; 81.7 µM (inactive) in the experiment with NCI-H23; 59.8 µM (inactive) in the experiment with M19-MEL; > 100 µM (inactive) with HOP-62. For the same compound, the GI50 was > 100 µM (inactive) with SN12C; > 100 µM (inactive) in the experiment with SK-MEL-28; 30.9 µM (inactive) in the experiment on SW-620; 61.5 µM (inactive) in the experiment with HCT-116; > 100 µM (inactive) with SNB-75; > 100 µM (inactive) in the experiment with SF-539. Also, the GI50 in the experiment with NCI-H226 is > 100 µM (inactive); in the experiment on M14, 74.5 µM (inactive); in the experiment on 786-0 it was 65.8 µM (inactive); in the experiment on Malme-3M, 79.3 µM (inactive); in the experiment on COLO 205 it was 46.7 µM (inactive).

For the compound `Cc1ccc(S(=O)(=O)C2=c3nc4ccccc4cc3=C3C(=O)c4ccccc4C(=O)C32)cc1` (centres undefined), the GI50 in the experiment with NCI-H522 is > 100 µM (inactive); with A498, 35 µM (inactive); with NCI-H23 it was > 100 µM (inactive); in the experiment on M19-MEL it was > 100 µM (inactive); in the experiment with HOP-62 it was > 100 µM (inactive); in the experiment on SN12C, > 100 µM (inactive). The GI50 with SK-MEL-28 was > 100 µM (inactive); with SW-620 it was > 100 µM (inactive); with HCT-116 it was > 100 µM (inactive); in the experiment with SNB-75, 43.3 µM (inactive); in the experiment with SF-539 it was > 100 µM (inactive); in the experiment on NCI-H226, > 100 µM (inactive). Also, the GI50 in the experiment with M14, in the experiment with 786-0, with Malme-3M and with COLO 205 was > 100 µM (inactive) throughout.

In the case of `CC(=O)OCC1OC(n2c(=S)n(-c3ccccc3)c(=O)c3cc(Br)ccc32)C(OC(C)=O)C1OC(C)=O` (centres undefined), the GI50 in the experiment on NCI-H522, in the experiment on HT-29, with A498, with NCI-H23, with M19-MEL and in the experiment on HOP-62 was > 100 µM (inactive) throughout. The GI50 is > 100 µM (inactive) in the experiment on SN12C; > 100 µM (inactive) with SK-MEL-28; > 100 µM (inactive) in the experiment on SW-620; > 100 µM (inactive) with HCT-116; 83.9 µM (inactive) with SNB-75; > 100 µM (inactive) in the experiment on SF-539. Besides, the GI50 in the experiment on NCI-H226, with M14, in the experiment on 786-0, in the experiment on Malme-3M and in the experiment on COLO 205 was > 100 µM (inactive) throughout.

On to `Cc1ccc(S(=O)(=O)N2CCC2c2ccccc2)cc1` (centres undefined), for which the GI50 is 74 µM (inactive) with NCI-H522; > 100 µM (inactive) with HT-29; > 100 µM (inactive) with A498; 76.4 µM (inactive) in the experiment on NCI-H23; > 100 µM (inactive) in the experiment with M19-MEL; > 100 µM (inactive) in the experiment with HOP-62. The GI50 with SN12C was > 100 µM (inactive); in the experiment with SK-MEL-28, > 100 µM (inactive); with SW-620, > 100 µM (inactive); in the experiment with HCT-116, 52.8 µM (inactive); in the experiment with SNB-75, 72.6 µM (inactive); with SF-539, > 100 µM (inactive). The GI50 was 28.6 µM (inactive) in the experiment with NCI-H226; > 100 µM (inactive) in the experiment with M14; > 100 µM (inactive) with 786-0; > 100 µM (inactive) in the experiment with Malme-3M; > 100 µM (inactive) with COLO 205.

Consider `O=C(CC/C(CC(=O)c1ccc(Cl)cc1)=N/O)Nc1ccc(Cl)c(Cl)c1`, for which the GI50 was 82.6 µM (inactive) in the experiment on NCI-H522; > 100 µM (inactive) in the experiment on HT-29; > 100 µM (inactive) with A498; 45.5 µM (inactive) in the experiment with NCI-H23; > 100 µM (inactive) in the experiment with M19-MEL; > 100 µM (inactive) in the experiment with HOP-62. Also, the GI50 in the experiment with SN12C was > 100 µM (inactive); in the experiment on SK-MEL-28, > 100 µM (inactive); in the experiment on SW-620, > 100 µM (inactive); in the experiment on HCT-116 it was > 100 µM (inactive); with SNB-75, 26 µM (inactive); in the experiment with SF-539, > 100 µM (inactive). For the same compound, the GI50 in the experiment on NCI-H226, in the experiment on M14, in the experiment with 786-0, with Malme-3M and with COLO 205 was > 100 µM (inactive) throughout.

On to `CC1=C2CC[C@@]3(C)C(=CCC3O)C2(C)CCC1=O` (some centres undefined), for which the GI50 in the experiment on NCI-H522 is > 100 µM (inactive); with HT-29, > 100 µM (inactive); in the experiment with A498, 91.6 µM (inactive); in the experiment on M19-MEL, > 100 µM (inactive); with HOP-62, > 100 µM (inactive); with SN12C, > 100 µM (inactive). In addition, the GI50 was > 100 µM (inactive) with SK-MEL-28; > 100 µM (inactive) in the experiment with SW-620; > 100 µM (inactive) in the experiment on HCT-116; 83 µM (inactive) in the experiment with SNB-75; > 100 µM (inactive) in the experiment on SF-539; > 100 µM (inactive) with NCI-H226. Moreover, the GI50 in the experiment on M14, in the experiment with 786-0, with Malme-3M and with COLO 205 was > 100 µM (inactive) throughout.

Regarding `CC1CC2CC(=O)CC3(C1)C2CCCN3CCCO` (centres undefined), the GI50 in the experiment on NCI-H522, in the experiment on HT-29, with A498, with NCI-H23, in the experiment on M19-MEL and with HOP-62 was > 100 µM (inactive) each time. The GI50 with SN12C, in the experiment with SK-MEL-28, in the experiment on SW-620, with HCT-116, in the experiment on SNB-75 and in the experiment on SF-539 was > 100 µM (inactive) each time. Further, the GI50 in the experiment with NCI-H226, in the experiment on M14, in the experiment on 786-0, in the experiment on Malme-3M and with COLO 205 was > 100 µM (inactive) each time.
